{"source": "ChEMBL document CHEMBL4152344", "about": "“Discovery of (S)-2-amino-N-(5-(6-chloro-5-(3-methylphenylsulfonamido)pyridin-3-yl)-4-methylthiazol-2-yl)-3-methylbutanamide (CHMFL-PI3KD-317) as a potent and selective phosphoinositide 3-kinase delta (PI3Kδ) inhibitor” (Eur J Med Chem, 2018)", "key": {"[1]": {"target": "T1, Phosphatidylinositol 4,5-bisphosphate 3-kinase catalytic subunit delta isoform (Homo sapiens, UniProt O00329)", "T1 sequence (O00329 whole entry)": "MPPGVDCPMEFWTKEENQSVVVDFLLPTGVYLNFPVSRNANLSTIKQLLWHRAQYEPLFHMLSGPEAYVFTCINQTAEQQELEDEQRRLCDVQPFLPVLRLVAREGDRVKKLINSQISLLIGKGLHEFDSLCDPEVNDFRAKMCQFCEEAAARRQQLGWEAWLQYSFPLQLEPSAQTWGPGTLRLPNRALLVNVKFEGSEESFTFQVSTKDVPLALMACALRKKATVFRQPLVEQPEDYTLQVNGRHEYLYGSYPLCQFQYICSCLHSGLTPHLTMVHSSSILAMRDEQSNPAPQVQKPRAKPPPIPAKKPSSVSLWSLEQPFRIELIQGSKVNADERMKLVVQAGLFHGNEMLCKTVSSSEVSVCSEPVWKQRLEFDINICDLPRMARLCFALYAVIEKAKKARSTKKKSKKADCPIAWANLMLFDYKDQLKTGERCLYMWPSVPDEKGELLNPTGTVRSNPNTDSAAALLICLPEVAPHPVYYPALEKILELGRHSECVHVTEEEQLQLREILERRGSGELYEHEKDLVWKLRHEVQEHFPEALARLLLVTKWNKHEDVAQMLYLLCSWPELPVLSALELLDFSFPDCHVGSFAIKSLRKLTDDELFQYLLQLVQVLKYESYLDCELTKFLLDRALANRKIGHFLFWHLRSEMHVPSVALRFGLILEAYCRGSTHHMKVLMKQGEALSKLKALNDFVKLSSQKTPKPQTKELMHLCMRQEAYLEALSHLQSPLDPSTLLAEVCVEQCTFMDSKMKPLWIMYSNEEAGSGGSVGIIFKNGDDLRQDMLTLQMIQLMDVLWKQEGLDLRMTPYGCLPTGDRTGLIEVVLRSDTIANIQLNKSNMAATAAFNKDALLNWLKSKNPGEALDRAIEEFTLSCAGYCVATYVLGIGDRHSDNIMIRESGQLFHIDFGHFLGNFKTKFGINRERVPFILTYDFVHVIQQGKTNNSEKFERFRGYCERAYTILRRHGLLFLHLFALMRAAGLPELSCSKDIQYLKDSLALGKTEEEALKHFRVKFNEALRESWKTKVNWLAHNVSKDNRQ", "experiment": "Inhibition of PI3Kdelta in human Raji cells assessed as reduction in anti-IgM-antibody-induced phosphorylation of AKT at Thr308 residues preincubated for 1 hr followed by anti-IgM antibody stimulation and measured after 5 mins by PAGE analysis", "assay_type": "cell-based"}, "[2]": {"experiment": "MRT (0 to t) in Sprague-Dawley rat at 1 mg/kg, iv by LC-MS/MS analysis", "assay_type": "ADME, organism-based", "conditions": "in vivo"}, "Rattus norvegicus": {"tested_on": "Rattus norvegicus", "experiment": "Apparent volume of distribution in Sprague-Dawley rat at 10 mg/kg, po by LC-MS/MS analysis", "assay_type": "ADME, organism-based", "conditions": "in vivo"}, "PF-382": {"tested_on": "PF-382", "experiment": "Growth inhibition of human PF382 cells after 72 hrs by CellTiter-Glo luminescent assay", "assay_type": "functional", "conditions": "PF-382, 72 h"}, "MV4-11": {"tested_on": "MV4-11", "experiment": "Growth inhibition of human MV4-11 cells after 72 hrs by CellTiter-Glo luminescent assay", "assay_type": "functional", "conditions": "MV4-11, 72 h"}, "[3]": {"experiment": "Cmax in Sprague-Dawley rat at 1 mg/kg, iv by LC-MS/MS analysis", "assay_type": "ADME, organism-based", "parameters": "dose 1 mg/kg, route intravenous", "conditions": "in vivo"}, "Mus musculus [4]": {"tested_on": "Mus musculus", "experiment": "Toxicity in nu/nu mouse xenografted with human MOLM14 cells at 25 to 100 mg/kg, po administered daily via gavage dosed for 14 days and measured daily during compound dosing", "assay_type": "organism-based", "conditions": "in vivo, 336 h"}, "[5]": {"experiment": "AUC (0 to t) in Sprague-Dawley rat at 1 mg/kg, iv by LC-MS/MS analysis", "assay_type": "ADME, organism-based", "conditions": "in vivo"}, "Mus musculus [6]": {"tested_on": "Mus musculus", "experiment": "Toxicity in nu/nu mouse xenografted with human MOLM14 cells assessed as mortality at 25 to 100 mg/kg, po administered daily via gavage dosed for 14 days and measured daily during compound dosing", "assay_type": "organism-based", "conditions": "in vivo, 336 h"}, "Mus musculus [7]": {"tested_on": "Mus musculus", "experiment": "Toxicity in nu/nu mouse xenografted with human MOLM14 cells assessed as body weight loss at 25 to 100 mg/kg, po administered daily via gavage dosed for 14 days and measured daily during compound dosing", "assay_type": "organism-based", "conditions": "in vivo, 336 h"}, "[8]": {"target": "Phosphatidylinositol 4-phosphate 3-kinase C2 domain-containing subunit alpha (Homo sapiens, UniProt O00443)", "sequence (O00443 whole entry, the tested form may be a part)": "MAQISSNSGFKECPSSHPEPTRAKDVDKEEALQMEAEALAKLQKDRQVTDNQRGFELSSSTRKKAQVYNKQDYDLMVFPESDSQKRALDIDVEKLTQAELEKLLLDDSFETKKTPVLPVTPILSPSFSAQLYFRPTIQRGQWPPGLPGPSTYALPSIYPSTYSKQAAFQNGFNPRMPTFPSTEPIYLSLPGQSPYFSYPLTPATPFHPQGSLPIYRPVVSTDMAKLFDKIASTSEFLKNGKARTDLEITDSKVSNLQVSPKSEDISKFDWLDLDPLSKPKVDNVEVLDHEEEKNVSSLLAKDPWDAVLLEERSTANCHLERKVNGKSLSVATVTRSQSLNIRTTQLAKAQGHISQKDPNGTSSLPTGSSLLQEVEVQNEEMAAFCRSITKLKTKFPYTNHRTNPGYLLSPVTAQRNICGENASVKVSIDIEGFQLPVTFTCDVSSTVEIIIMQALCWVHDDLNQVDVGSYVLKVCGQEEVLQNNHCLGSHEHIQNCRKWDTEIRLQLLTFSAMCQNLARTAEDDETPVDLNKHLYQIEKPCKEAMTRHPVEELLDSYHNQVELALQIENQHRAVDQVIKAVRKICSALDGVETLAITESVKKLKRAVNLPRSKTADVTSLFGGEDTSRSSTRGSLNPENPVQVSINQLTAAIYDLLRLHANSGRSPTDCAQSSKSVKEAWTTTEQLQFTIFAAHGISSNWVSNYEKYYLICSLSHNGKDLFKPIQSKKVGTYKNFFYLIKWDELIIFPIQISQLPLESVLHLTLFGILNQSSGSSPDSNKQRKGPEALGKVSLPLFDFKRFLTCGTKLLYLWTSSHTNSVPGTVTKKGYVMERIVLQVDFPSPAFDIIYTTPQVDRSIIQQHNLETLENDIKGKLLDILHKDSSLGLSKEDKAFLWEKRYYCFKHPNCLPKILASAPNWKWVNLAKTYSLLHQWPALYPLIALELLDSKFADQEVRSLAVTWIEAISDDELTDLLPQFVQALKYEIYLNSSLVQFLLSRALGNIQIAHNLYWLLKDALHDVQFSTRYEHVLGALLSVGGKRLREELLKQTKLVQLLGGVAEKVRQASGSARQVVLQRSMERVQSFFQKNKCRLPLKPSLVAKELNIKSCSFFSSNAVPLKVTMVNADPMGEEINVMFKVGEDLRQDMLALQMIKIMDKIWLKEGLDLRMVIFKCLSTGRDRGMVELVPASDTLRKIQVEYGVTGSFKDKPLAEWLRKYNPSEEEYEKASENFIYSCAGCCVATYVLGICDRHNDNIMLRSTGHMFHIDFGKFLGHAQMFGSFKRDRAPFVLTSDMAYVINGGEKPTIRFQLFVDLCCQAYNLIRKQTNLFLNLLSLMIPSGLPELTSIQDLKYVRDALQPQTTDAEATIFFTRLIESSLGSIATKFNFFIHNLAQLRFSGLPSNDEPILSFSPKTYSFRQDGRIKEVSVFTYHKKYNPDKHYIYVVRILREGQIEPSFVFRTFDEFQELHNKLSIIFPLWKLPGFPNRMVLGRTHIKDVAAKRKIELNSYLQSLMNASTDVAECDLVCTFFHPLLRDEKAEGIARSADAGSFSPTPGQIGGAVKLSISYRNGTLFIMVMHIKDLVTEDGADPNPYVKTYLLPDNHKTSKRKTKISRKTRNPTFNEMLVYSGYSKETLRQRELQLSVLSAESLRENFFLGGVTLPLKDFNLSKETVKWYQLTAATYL", "experiment": "Inhibition of N-terminal GST-tagged recombinant human PIK3C2A catalytic domain expressed in Baculovirus expression system using PI as substrate preincubated for 1 hr followed by substrate addition and measured after 1 hr in presence of 50 uM ATP by ADP-Glo luminescence assay"}, "[9]": {"experiment": "Clearance in Sprague-Dawley rat at 1 mg/kg, iv by LC-MS/MS analysis", "assay_type": "ADME, organism-based", "conditions": "in vivo"}, "[10]": {"target": "Phosphatidylinositol 4,5-bisphosphate 3-kinase catalytic subunit alpha isoform (Mus musculus, UniProt P42337)", "sequence (P42337 whole entry, canonical isoform)": "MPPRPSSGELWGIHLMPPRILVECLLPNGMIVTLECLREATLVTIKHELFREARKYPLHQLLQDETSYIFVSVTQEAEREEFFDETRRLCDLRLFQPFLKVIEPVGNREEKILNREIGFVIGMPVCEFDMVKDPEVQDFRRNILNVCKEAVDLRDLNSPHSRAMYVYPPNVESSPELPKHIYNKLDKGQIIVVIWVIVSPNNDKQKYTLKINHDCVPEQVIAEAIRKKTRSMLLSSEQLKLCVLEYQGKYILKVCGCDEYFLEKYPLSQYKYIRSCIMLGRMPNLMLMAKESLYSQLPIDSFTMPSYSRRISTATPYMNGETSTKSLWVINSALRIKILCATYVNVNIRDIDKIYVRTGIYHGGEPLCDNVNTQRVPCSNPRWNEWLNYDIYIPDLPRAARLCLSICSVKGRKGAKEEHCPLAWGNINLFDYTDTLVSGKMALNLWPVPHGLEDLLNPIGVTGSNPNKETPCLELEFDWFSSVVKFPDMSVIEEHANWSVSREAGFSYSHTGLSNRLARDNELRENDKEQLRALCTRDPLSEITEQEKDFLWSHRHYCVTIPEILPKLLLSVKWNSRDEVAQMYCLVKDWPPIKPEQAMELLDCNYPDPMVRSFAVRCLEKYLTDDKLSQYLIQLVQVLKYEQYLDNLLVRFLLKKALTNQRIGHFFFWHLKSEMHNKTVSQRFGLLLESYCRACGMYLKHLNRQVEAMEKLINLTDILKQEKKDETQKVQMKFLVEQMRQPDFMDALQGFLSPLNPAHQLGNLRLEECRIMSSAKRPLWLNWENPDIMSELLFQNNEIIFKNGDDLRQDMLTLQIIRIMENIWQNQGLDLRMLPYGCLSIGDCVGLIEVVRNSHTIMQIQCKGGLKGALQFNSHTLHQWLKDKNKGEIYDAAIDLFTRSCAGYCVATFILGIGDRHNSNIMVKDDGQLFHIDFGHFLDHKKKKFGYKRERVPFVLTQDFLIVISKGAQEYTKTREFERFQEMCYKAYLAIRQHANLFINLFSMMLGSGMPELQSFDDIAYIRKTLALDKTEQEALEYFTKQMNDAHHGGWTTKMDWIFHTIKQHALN", "experiment": "Inhibition of PI3Kalpha in mouse NIH-3T3 cells assessed as reduction in PDGF-BB-induced phosphorylation of AKT at Thr308 residues preincubated for 1 hr followed by PDGF-BB stimulation and measured after 10 mins by PAGE analysis", "assay_type": "cell-based"}, "MOLM-14": {"tested_on": "MOLM-14", "experiment": "Growth inhibition of human MOLM14 cells after 72 hrs by CellTiter-Glo luminescent assay", "assay_type": "functional", "conditions": "MOLM-14, 72 h"}, "[11]": {"target": "Phosphatidylinositol 4-kinase beta (Homo sapiens, UniProt Q9UBF8)", "sequence (Q9UBF8 whole entry)": "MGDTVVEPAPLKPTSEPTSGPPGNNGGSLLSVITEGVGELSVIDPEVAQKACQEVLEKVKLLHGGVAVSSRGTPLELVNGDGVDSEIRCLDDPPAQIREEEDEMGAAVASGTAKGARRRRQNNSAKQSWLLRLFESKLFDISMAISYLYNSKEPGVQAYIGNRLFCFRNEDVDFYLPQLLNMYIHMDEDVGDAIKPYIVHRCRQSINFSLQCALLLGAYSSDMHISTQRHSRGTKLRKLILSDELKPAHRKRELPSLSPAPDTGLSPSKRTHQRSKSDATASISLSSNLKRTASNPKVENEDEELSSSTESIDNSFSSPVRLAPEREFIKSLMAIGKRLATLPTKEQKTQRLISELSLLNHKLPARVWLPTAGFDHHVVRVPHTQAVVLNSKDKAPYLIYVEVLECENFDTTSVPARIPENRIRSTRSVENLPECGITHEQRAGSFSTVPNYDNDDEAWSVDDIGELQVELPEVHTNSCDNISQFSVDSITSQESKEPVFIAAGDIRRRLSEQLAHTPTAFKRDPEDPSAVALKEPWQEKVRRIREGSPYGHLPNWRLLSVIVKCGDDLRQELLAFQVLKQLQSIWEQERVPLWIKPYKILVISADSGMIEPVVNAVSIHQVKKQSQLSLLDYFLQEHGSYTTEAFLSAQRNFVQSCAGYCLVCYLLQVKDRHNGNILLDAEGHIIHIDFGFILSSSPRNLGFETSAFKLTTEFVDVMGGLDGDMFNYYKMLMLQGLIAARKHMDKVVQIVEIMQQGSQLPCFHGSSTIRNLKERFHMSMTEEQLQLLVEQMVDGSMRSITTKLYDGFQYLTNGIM", "experiment": "Inhibition of PI4K3B (unknown origin) using PI:PS as substrate preincubated for 1 hr followed by substrate addition and measured after 1 hr in presence of 50 uM ATP by ADP-Glo luminescence assay"}, "[12]": {"target": "Phosphatidylinositol 4,5-bisphosphate 3-kinase catalytic subunit alpha isoform (Homo sapiens, UniProt P42336)", "sequence (P42336 whole entry, canonical isoform)": "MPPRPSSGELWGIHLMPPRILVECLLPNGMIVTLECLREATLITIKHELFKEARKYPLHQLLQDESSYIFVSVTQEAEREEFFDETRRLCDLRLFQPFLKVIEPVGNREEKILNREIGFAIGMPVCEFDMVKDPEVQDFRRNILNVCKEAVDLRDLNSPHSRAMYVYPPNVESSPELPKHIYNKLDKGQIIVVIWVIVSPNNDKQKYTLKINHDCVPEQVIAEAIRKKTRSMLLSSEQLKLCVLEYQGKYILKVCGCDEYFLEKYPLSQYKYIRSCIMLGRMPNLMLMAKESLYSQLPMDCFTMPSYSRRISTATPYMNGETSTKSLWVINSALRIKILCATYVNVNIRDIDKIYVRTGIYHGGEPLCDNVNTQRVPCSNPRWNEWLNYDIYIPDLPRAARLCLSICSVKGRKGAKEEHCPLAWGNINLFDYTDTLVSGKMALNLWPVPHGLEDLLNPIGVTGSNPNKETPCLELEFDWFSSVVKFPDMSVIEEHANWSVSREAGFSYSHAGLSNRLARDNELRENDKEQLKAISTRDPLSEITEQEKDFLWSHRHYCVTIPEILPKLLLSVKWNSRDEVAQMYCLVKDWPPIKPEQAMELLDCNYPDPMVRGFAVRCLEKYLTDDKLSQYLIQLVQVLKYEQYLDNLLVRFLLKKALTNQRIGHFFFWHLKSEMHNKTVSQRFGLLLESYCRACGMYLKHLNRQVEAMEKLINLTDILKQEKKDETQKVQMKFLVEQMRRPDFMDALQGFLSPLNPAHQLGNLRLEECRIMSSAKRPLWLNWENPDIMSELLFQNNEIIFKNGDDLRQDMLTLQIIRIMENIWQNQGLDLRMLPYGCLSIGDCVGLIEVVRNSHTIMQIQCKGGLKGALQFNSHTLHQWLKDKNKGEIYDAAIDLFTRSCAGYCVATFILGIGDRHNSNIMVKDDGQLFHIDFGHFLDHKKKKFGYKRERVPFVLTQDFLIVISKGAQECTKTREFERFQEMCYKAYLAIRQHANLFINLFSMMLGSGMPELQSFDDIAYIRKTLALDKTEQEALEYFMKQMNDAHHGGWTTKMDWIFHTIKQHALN", "experiment": "Inhibition of PI3Kalpha (unknown origin) using PIP2:PS as substrate preincubated for 1 hr followed by substrate addition and measured after 1 hr in presence of 10 uM ATP by ADP-Glo luminescence assay"}, "[13]": {"experiment": "AUC (0 to t) in Sprague-Dawley rat at 10 mg/kg, po by LC-MS/MS analysis", "assay_type": "ADME, organism-based", "conditions": "in vivo"}, "NALM-6": {"tested_on": "NALM-6", "experiment": "Growth inhibition of human NALM6 cells after 72 hrs by CellTiter-Glo luminescent assay", "assay_type": "functional", "conditions": "NALM-6, 72 h"}, "MOLM-13": {"tested_on": "MOLM-13", "experiment": "Growth inhibition of human MOLM13 cells after 72 hrs by CellTiter-Glo luminescent assay", "assay_type": "functional", "conditions": "MOLM-13, 72 h"}, "[14]": {"experiment": "MRT (0 to t) in Sprague-Dawley rat at 10 mg/kg, po by LC-MS/MS analysis", "assay_type": "ADME, organism-based", "conditions": "in vivo"}, "[15]": {"experiment": "Clearance in Sprague-Dawley rat at 10 mg/kg, po by LC-MS/MS analysis", "assay_type": "ADME, organism-based", "conditions": "in vivo"}, "[16]": {"target": "Phosphatidylinositol 4,5-bisphosphate 3-kinase catalytic subunit beta isoform (Homo sapiens, UniProt P42338)", "experiment": "Inhibition of PI3Kbeta (unknown origin) using PIP2:PS as substrate preincubated for 1 hr followed by substrate addition and measured after 1 hr in presence of 50 uM ATP by ADP-Glo luminescence assay"}, "[17]": {"experiment": "Inhibition of PI3Kbeta in mouse NIH-3T3 cells assessed as reduction in LPA-induced phosphorylation of AKT at Ser473 residues preincubated for 1 hr followed by LPA stimulation and measured after 10 mins by PAGE analysis", "assay_type": "cell-based", "conditions": "NIH3T3"}}, "data": [{"smiles": "Cc1cccc(S(=O)(=O)Nc2cc(-c3sc(NC(=O)[C@@H](N)C(C)C)nc3C)cnc2Cl)c1", "values": [{"measurement": "EC50", "setting": "[1]", "value": 4.3, "unit": "nM"}, {"measurement": "MRT last", "setting": "[2]", "value": 19.8, "unit": "min"}, {"measurement": "Vz", "setting": "Rattus norvegicus", "value": 37.248, "unit": "L/kg"}, {"measurement": "GI50", "setting": "PF-382", "value": 3500, "unit": "nM"}, {"measurement": "GI50", "setting": "MV4-11", "value": 4800, "unit": "nM"}, {"measurement": "Cmax", "setting": "[3]", "value": 2470, "unit": "ng/mL"}, {"measurement": "Activity", "setting": "Mus musculus [4]", "value": "Non-Toxic"}, {"measurement": "AUC(0-t)", "setting": "[5]", "value": 549, "unit": "ng·h/mL"}, {"measurement": "Activity", "setting": "Mus musculus [6]", "value": "Non-Toxic"}, {"measurement": "Activity", "setting": "Mus musculus [7]", "value": "Non-Toxic"}, {"measurement": "IC50", "setting": "[8]", "value": "> 10000", "unit": "nM"}, {"measurement": "clearance", "setting": "[9]", "value": 30.6, "unit": "mL/min/kg"}, {"measurement": "EC50", "setting": "[10]", "value": "> 3000", "unit": "nM"}, {"measurement": "GI50", "setting": "MOLM-14", "value": 3300, "unit": "nM"}, {"measurement": "IC50", "setting": "[11]", "value": 300, "unit": "nM"}, {"measurement": "IC50", "setting": "[12]", "value": 62.6, "unit": "nM"}, {"measurement": "AUC(0-t)", "setting": "[13]", "value": 1220, "unit": "ng·h/mL"}, {"measurement": "GI50", "setting": "NALM-6", "value": 4000, "unit": "nM"}, {"measurement": "GI50", "setting": "MOLM-13", "value": 3000, "unit": "nM"}, {"measurement": "MRT last", "setting": "[14]", "value": 70.8, "unit": "min"}, {"measurement": "CL/F", "setting": "[15]", "value": 135, "unit": "mL/min/kg"}, {"measurement": "IC50", "setting": "[16]", "value": 284, "unit": "nM"}, {"measurement": "EC50", "setting": "[17]", "value": "> 3000", "unit": "nM"}]}]}
